In patent US12390439B2, “Oral liquid formulation of methocarbamol” (Liqmeds Worldwide Limited, priority 2023, dated 2025):
Converted amounts (≈) assume the structure as drawn.

Experiments:
Assay type in all cases: physicochemical
[1] = Solubility of methocarbamol in different vehicles at various pH conditions
Method: Solubility of Methocarbamol was carried out in different vehicles at various pH conditions, and the results are presented in Table 1.

[2] = Photostability study of formulation B3
[3] = Drug-excipient compatibility study: related substance; settings: higher temperature conditions
Method: Accurately weighed quantity of methocarbamol, and individual excipients were mixed as per ratio mentioned in the drug-excipient compatibility table. Mixtures were filled in glass vials, plugged using LDPE plugs which were manually punctured.
Filled glass vials were exposed to temperature and humidity conditions i.e. 60° C.±2° C., and 40° C.±2° C./75±5% RH for 4 weeks.

[4] = API in Protected Condition (Control)

Vol. req. to dissolve 1500 mg API ([1]; 0.1N HCl): 100.00 mL
solubility ([1]; 0.1N HCl, simulated gastric fluid): 15.5 mg/mL (≈ 64.1 mM)
Vol. req. to dissolve 1500 mg API ([1]; Purified water): 98.02 mL
Solubility (conclusion) ([1]; all pH media): high solubility
solubility ([1]; aqueous buffer, pH 4.5 acetate buffer): 16.9 mg/mL (≈ 69.9 mM)
solubility ([1]; aqueous buffer, pH 6.8 phosphate buffer): 14.1 mg/mL (≈ 58.4 mM)
solubility ([1]; aqueous buffer, pH 7.2 phosphate buffer): 13.6 mg/mL (≈ 56.5 mM)
Vol. req. to dissolve 1500 mg API ([1]; pH 4.5 acetate buffer): 88.96 mL
Vol. req. to dissolve 1500 mg API ([1]; pH 6.8 phosphate buffer): 106.38 mL
Vol. req. to dissolve 1500 mg API ([1]; pH 7.2 phosphate buffer): 109.96 mL
solubility ([1]; purified water, water): 15.3 mg/mL (≈ 63.4 mM)
Assay (%) [2, 4]: 99.2%
Related Substances: Guaifenesin [2, 4]: 0.01%
Related Substances: Methocarbamol Isomer [2, 4]: 0.01%
Related Substances: Total Impurities [2, 4]: 0.02%
Assay (%) ([2]; API in open Exposed Condition): 99.8%
Related Substances: Guaifenesin ([2]; API in open Exposed Condition): 0.01%
Related Substances: Methocarbamol Isomer ([2]; API in open Exposed Condition): 0.02%
Related Substances: Total Impurities ([2]; API in open Exposed Condition): 0.03%
Assay (%) ([2]; API, Initial): 99.3%
Related Substances: Guaifenesin ([2]; API, Initial): 0.03%
Related Substances: Total Impurities ([2]; API, Initial): 0.03%
Description ([2]; Methocarbamol API (Batch no: A), Initial, open Exposed Condition and Protected Condition (Control)): White Bulky Powder odorless
Stability of methocarbamol in aqueous phase [3]: probable instability
SMILES: COc1ccccc1OCC(O)COC(N)=O (stereo not drawn) [methocarbamol]
